Columns and labels:
[1] = biological target: D(2) dopamine receptor (Rattus norvegicus, UniProt P61169); test: Evaluated in vitro for the affinity towards Dopamine receptor D2 of rat striatal tissue
[2] = Maximum […] (Bmax) was determined.; format: ADME, organism-based; settings: in vivo

Chain of D(2) dopamine receptor (P61169 whole entry): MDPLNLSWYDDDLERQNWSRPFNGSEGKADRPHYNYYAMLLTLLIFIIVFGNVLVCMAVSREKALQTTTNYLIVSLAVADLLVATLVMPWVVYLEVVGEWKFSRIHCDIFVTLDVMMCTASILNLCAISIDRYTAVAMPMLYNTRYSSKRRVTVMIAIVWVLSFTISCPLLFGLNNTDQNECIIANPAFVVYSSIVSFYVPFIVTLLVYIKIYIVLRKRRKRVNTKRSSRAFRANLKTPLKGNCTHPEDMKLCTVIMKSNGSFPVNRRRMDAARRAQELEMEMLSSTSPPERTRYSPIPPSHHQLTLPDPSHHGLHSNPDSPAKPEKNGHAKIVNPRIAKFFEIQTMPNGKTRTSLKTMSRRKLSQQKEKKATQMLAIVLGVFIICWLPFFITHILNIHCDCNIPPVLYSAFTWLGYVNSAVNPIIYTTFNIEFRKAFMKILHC

SMILES | Kd [1] [nM] | Bmax [2] [pM/g]
CCN1CCC[C@H]1CNC(=O)c1cc(I)ccc1OC [IODOPRIDE] | 3 | 
CCN1CCC[C@H]1CNC(=O)c1c(OC)ccc(S(N)(=O)=O)c1I [IODOSULPIRIDE] | 1.5 | 
CCN1CCC[C@H]1CNC(=O)c1c(OC)ccc(I)c1O [IOLOPRIDE] | 0.43 | 
CN1CN(c2ccccc2)C2(CCN(CCCC(=O)c3ccc(F)cc3)CC2)C1=O [MESPIPERONE] | 0.097 | 16.6
